One molecule from PMC9861386, “N-Heterocyclic Carbene-Iridium Complexes as Photosensitizers for In Vitro Photodynamic Therapy to Trigger Non-Apoptotic Cell Death in Cancer Cells” (Molecules, 2023) can be followed below.

Assay [1] relates to PARP, caspase-7 and caspase-8 processing. Kind of assay: Western blot of apoptotic biomarkers. In kind it is cell-based, human. The settings on record: 458 nm irradiation, 72 h. The source says: Its effects on apoptotic biochemical markers by Western blotting analysis in MCF7/FasR cells and its Bcl-xL-overexpressed counterpart in comparison with the apoptotic inducer TNFα were examined (Figure 13). Cleavage-mediated inactivation of DNA repair enzyme poly(ADP-ribose) polymerase (PARP) by executioner caspases (e.g., caspase-3, caspase-7) has been considered as a marker of apoptotic cell death. The treatment with TNFα was associated with the proteolytic cleavage of PARP (decreased in 113 kDa full-length, increased in apoptotic 89 kDa fragment) in MCF7/FasR cells (Figure 13A). Since the MCF7 cell line lacks caspase-3 due to the functional deletion of the CASP-3 gene, caspase-7 is the only executioner caspase in these cells, as evidenced by the decreased content in the 35 kDa full-length pro-caspase-7 observed upon TNFα treatment (Figure 13A). The upstream caspase-8 that can directly process caspase-7 (extrinsic pathway) was also activated (loss of 55 kDa full-length pro-caspase-8). […] Importantly, the overexpression of Bcl-xL had no effect on apoptotic markers, regardless of the concentration of complex 4a used, implying that a MOMP-dependent mechanism is unlikely to be involved. In parallel experiments, cell viability and quantification of ATP and GSH levels were assessed. […] The early transient elevation of cytosolic ATP level is a necessary condition for the apoptotic cell death process, followed by a drop that correlates with the time course of cell death. […]
We next evaluated the effect of the pan-caspase inhibitor z-VAD-fmk on caspase signaling. […]
Cell lysate preparation and Western blotting were carried out as previously described. […] Proteins were visualized by ECL (Clarity Western ECL Substrate, Bio-Rad, Marnes-la-Coquette, France) using anti-rabbit or anti-mouse HRP-conjugated IgG (Bio-Rad); analysis of Western blots was assessed with a ChemiDoc imaging system (Bio-Rad).
Figure 13 Evaluation of apoptotic biomarkers. […] (B) MTT, ATP and GSH assays were evaluated in duplicate samples. […]

The test system of assay [2] is PC-3 cells. Kind of assay: Subcellular localization by confocal microscopy with MitoTracker Deep Red. In kind it is cell-based, human. The following applies: 500 nM, 24 h. An excerpt:
The intracellular localization of complex 4a was studied by confocal laser scanning microscopy. The treatment of PC-3 (human prostate) cells with complex 4a led to the development of intense fluorescence in the cytoplasm (Figure 9B). Specific subcellular location was investigated by staining the organelles with the specific fluorescent probe MitoTracker Deep Red (Figure 9C). […] However, an accumulation of complex 4a in lysosomes or the endoplasmic reticulum cannot be excluded.
Cell imaging was performed on an LSM 710 NLO-Meta confocal microscope with spectral detection (Zeiss, Göttingen, Germany). Images were taken through a 40×/1.2 W objective. Microscopy imaging experiments were performed with PC-3 cells that were cultured in 6-well plates and on glass slides (180,000 cells per well) for 18 h before incubation with complex 4a at different concentrations (0.25 μM, 0.5 μM and 1 μM) for various times. After 24 h, the MitoTracker deep red probe (Fisher Scientific, Illkirch, France) was incubated on live cells at a final concentration of 200 nM during 15 min at 37 °C in a 5% CO2 humidified incubator and then observed in one pass two channels 440–544 nm for complex 4a (two-photon excitation at 720 nm) and 644–700 nm for MitoTracker (excitation at 633 nm) at the same time. Merged images were generated to evaluate colocalization of the mitochondrial probe with complex 4a. […]

Regarding `CC(C)[n+]1ccn2[c]1[Ir-3]13([c]4ccccc4-c4cccc[n+]41)([c]1ccccc1-c1cccc[n+]13)[c]1n(cc[n+]1C(C)C)C2.F[P-](F)(F)(F)(F)F` [Complex 4a], in assay [1] (50 nM, MCF7/FasR and MCF7/FasR/Bcl-xL), the “processing of PARP, caspase-7 and caspase-8 at GI50 concentration” value was “no processing of PARP, caspase-7 and caspase-8 were observed”. Further, the “processing of PARP, caspase-7 and caspase-8 at high concentration” value in assay [1] (250 nM and 1 µM, MCF7/FasR) was “cleavage of PARP and processing of caspase-7 and caspase-8”. In assay [1] (500 nM, MCF7/FasR), the “procaspase-7 expression and PARP activation” value is recorded as “significant loss of procaspase-7 expression”. Further, in assay [2], the “Pearson colocalization coefficient with MitoTracker Deep Red (mitochondria)” value is given as 88%.
